Reference: US20140249573A1, “METHODS AND DEVICES FOR OCCLUDING BLOOD FLOW TO AN ORGAN” (A.A. CASH TECHNOLOGY LTD., priority 2011, published 2014)
Values joined by “and” are separate entries in the source; they are usually repeats but may differ in a detail not shown here. Identical values can stand only once.

Tests used:
[1] = tested on: lymphocyte; conditions: three female pigs, 60 mg/kg IV over 1 hour, the following day
Protocol: The protocol and design of all parts of this study were approved by the Animal Research Ethics Committee of Israel. Three female pigs (The Institute of Animal Research, Kibbutz Lahav, Israel) weighing 60 Kg each, were anesthetized with 10 mg/kg intramuscular ketamine hydrochloride and 4 mg/kg xylazine hydrochloride (Vetmarket, Israel). One ovary of each pig was exposed by a longitudinal midline incision. A conventional gastric band (Lap-band; Allergen, Irvine, Calif., USA) was modified according to some embodiments of the invention, to occlude blood flow to the ovaries. The band was wound around the ovarian hilum, and a zip tie was placed on the center of the band ring to reduce the diameter of the band's aperture. 10 ml saline was injected via the band's port thus completely blocking blood flow through the ovarian and uterine arteries and veins. The color and the morphology of the ovary were observed after occlusion of blood flow as well as after the bands were released. The other ovary in each pig was left unprotected (i.e. was left with natural blood flow, and thus completely exposed to chemotherapy). Heparin was administered intravenously before occlusion to prevent or reduce blood coagulation within the ovary throughout the occlusion time interval and a few hours thereafter. A control pig was left untreated. […]

[2] = tested on: ovary; conditions: eight days after treatment
Protocol: The protocol and design of all parts of this study were approved by the Animal Research Ethics Committee of Israel. Three female pigs (The Institute of Animal Research, Kibbutz Lahav, Israel) weighing 60 Kg each, were anesthetized with 10 mg/kg intramuscular ketamine hydrochloride and 4 mg/kg xylazine hydrochloride (Vetmarket, Israel). One ovary of each pig was exposed by a longitudinal midline incision. A conventional gastric band (Lap-band; Allergen, Irvine, Calif., USA) was modified according to some embodiments of the invention, to occlude blood flow to the ovaries. The band was wound around the ovarian hilum, and a zip tie was placed on the center of the band ring to reduce the diameter of the band's aperture. 10 ml saline was injected via the band's port thus completely blocking blood flow through the ovarian and uterine arteries and veins. The color and the morphology of the ovary were observed after occlusion of blood flow as well as after the bands were released. The other ovary in each pig was left unprotected (i.e. was left with natural blood flow, and thus completely exposed to chemotherapy). Heparin was administered intravenously before occlusion to prevent or reduce blood coagulation within the ovary throughout the occlusion time interval and a few hours thereafter. A control pig was left untreated.
The ovaries blood supply was occluded for 16 hours after the drug administration interval (i.e. a total occlusion time interval exceeding 17 hours). The bands were then opened by drawing out the 10 ml of saline via the port.
Eight days after the chemo treatment the pigs were euthanized according to animal ethics procedures and the ovaries were removed and examined visually, removed, weighed and follicles were counted.

**Q.** Which “lymphocyte counts, decreased to % of the initial level” value [1] does the source give for `O=P1(N(CCCl)CCCl)NCCCO1` (stereo not shown) [Cyclophosphamide] here?
**A.** 12%

**Q.** And the “size and number of follicles of occluded (protected) ovaries” value ([2]; all ovaries occluded during chemotherapy administration)?
**A.** comparable to the control animal

**Q.** What about the “Weight of ovary, Occluded” value ([2]; ovary with blood supply occluded by band for more than 17 hours, 60 mg/kg IV over 1 hour, one value per pig, 60 mg/kg) of the same compound?
**A.** 3.6 gr and 3.8 gr and 5.2 gr

**Q.** What about the “visual appearance of unprotected ovaries” value ([2]; unprotected ovaries, in two of the three animals) of the same compound?
**A.** visible signs of atrophy
